Assay results published in patent US6858627B2, “Glucocorticoid mimetics, methods of making them, pharmaceutical compositions, and uses thereof” (Boehringer Ingelheim Pharmaceuticals, Inc., priority 2002, dated 2005).

Key:
glucocorticoid receptor [1] = assay: Glucocorticoid receptor cell assays, antagonist activity; format: cell-based; details: assay not given
Description: B. Glucocorticoid Receptor Cell Assays
Evaluation of agonist or antagonist activity of compounds binding to the glucocorticoid receptor may be determined by any of the assays.
3. Modulation of Tyrosine Aminotransferase (TAT) Induction in Rat Hepatoma Cells
Testing of compounds for agonist or antagonist activity in induction of tyrosine aminotransferase (TAT) in rat hepatoma cells.
H4-II-E-C3 cells were incubated overnight in 96 well plates (20,000 cells/100 μL/well) in MEM medium containing 10% heat inactivated FBS and 1% nonessential amino acids. On the next day, cells were stimulated with the indicated concentrations of dexamethasone or test compound (dissolved in DMSO, final DMSO concentration 0.2%) for 18 hours. Control cells were treated with 0.2% DMSO. After 18 hours, the cells were lysed in a buffer containing 0.1% Triton X-100 and the TAT activity was measured in a photometric assay using tyrosine and alpha-ketoglutarate as substrates. […]
Cells were cultured overnight in DMEM medium without phenol red, supplemented with 3% CCS (charcoal treated calf serum) and then transferred to 96 well plates (15,000 cells/100 μL/well). […] After 18 hours, the cells were lysed with cell lysis reagent (Promega, Cat. No. E1531), luciferase assay reagent (Promega, Cat. No. E1501) was added and the glow luminescence was measured using a luminometer (BMG, Offenburg). […]

glucocorticoid receptor [2] = assay: Glucocorticoid receptor function, one or more of the above assays (binding and cell assays); format: cell-based; details: in one or more of the above assays; assay not given
Description: Compounds of the invention were evaluated for binding to the steroid receptor by a fluorescence polarization competitive binding assay. Detailed descriptions for preparation of recombinant glucocorticoid receptor (GR) complex used in the assay is described in U.S. Patent Application Publication No. 2003/0,017,503, filed May 20, 2002, and the corresponding U.S. provisional application No. 60/291,877, filed May 18, 2001, each of which is incorporated herein by reference in its entirety. Preparation of the tetramethyl rhodamine (TAMRA)-labeled dexamethasone probe was accomplished using a standard literature procedure (M. Pons et al., J. Steroid Biochem., 1985, 22, pp. 267-273).
This assay uses fluorescence polarization (FP) to quantitate the ability of test compounds to compete with tetramethyl rhodamine (TAMRA)-labeled dexamethasone for binding to a human glucocorticoid receptor (GR) complex prepared from an insect expression system. […]
The binding reactions were incubated for 1 hour at room temperature and then read for fluorescence polarization in the LJL Analyst set to 550 nm excitation and 580 nm emission, with the Rhodamine 561 dichroic mirror installed. IC50 values were determined by iterative non-linear curve fitting of the FP signal data to a 4-parameter logistic equation. […]

Row | Structure (SMILES) | activity as antagonists in cellular assays (glucocorticoid receptor [1]) | activity as an agonist of the glucocorticoid receptor function (glucocorticoid receptor [2])
1 | C=CCSCC1=CC(C)(C)Nc2ccc(-c3ccccc3OC)cc21 [4-Allylsulfanylmethyl-6-(2-methoxyphenyl)-2,2-dimethyl-1,2-dihydroquinoline] | potent activity as antagonists | –
2 | C=CCOC(C)C1=CC(C)(C)Nc2ccc(-c3cc(F)ccc3OC)cc21 (stereo not drawn) [4-(1-Allyloxyethyl)-6-(5-fluoro-2-methoxyphenyl)-2,2-dimethyl-1,2-dihydroquinoline] | – | activity as an agonist
3 | C=CCOC(C)C1=CC(C)(C)Nc2ccc(-c3ccccc3OC)cc21 (stereo not drawn) [4-(1-Allyloxyethyl)-6-(2-methoxyphenyl)-2,2-dimethyl-1,2-dihydroquinoline] | potent activity as antagonists | –
